According to patent EP0667959B1, “Methods for identifying inhibitors of the production of beta-amyloid peptide” (ELAN PHARMACEUTICALS, INC., priority 1992, dated 1994):

Experiments:
[1] = tested on: 266 capture antibody and 10D5 reporter antibody; experiment: βAP cross-reactivity in 266/10D5 sandwich ELISA; format: binding; details: molecule at 1-1000 ng/ml
Method: Monoclonal antibody 266 was diluted to a concentration of 5 µg/ml, and monoclonal antibody 067 to 10 µg/ml in a buffer containing NaH2PO4·7H2O, 26.2 g/L; NaN3, 1 g/L; pH 8.3. One hundred µl/well of this solution was then dispensed in a 96 well polystyrene transparent COSTAR plate and incubated overnight at room temperature. Following coating, the remaining solution was aspirated and the non-specific antibody binding sites were blocked with 0.25% human serum albumin (HSA) dissolved in a buffer containing NaH2PO4·H2O, 1 g/L; Na2HPO4·7H2O, 10.8 g/L; NaN3, 0.5 g/L and sucrose, 25 g/L; pH 7.4. These coated/blocked plates were used immediately or dried in a desiccator and stored in a dry container at 4°C for a maximum of 5 days.
Calibrators containing known amounts of βAP and samples from various bodily or extra bodily fluids were then added to the plate at 100 µl/well. The samples were added undiluted or diluted in a buffer containing NaH2PO4·H2O, 0.2 g/L; Na2HPO4·7H2O, 2.16 g/L; NaN3, 0.5 g/L; BSA (globulin free) 6 g/L; Triton X-405, 0.5 mL/L; NaCl, 8.5 g/L; pH 7.4. Samples and calibrators were incubated in the wells for 1 hour at room temperature, subsequently aspirated, and the wells washed with 300 µl/well of a solution containing NaCl, 80 g/L; KCl, 3.8 g/L; Tris base, 5.85 g/L; Tris HCl, 31.75 g/L; and 0.05% Tween® 20; pH 7.5 (TBS).
NHS-biotin (15 mg) was dissolved in 0.25 ml dimethylsulfoxide, and 10 µl of this solution was added to 1 mg of 10D5 or 6C6 antibody suspended in 1 ml of sodium carbonate solution, 50 mM, pH 8.5. The mixture was incubated in the dark for 1½ hours at room temperature and then dialyzed against phosphate buffered saline, pH 7.4 for 48 hours at 4°C, to produce biotinylated reporter antibody. One hundred µl/well of the biotinylated reporter antibody (10D5 or 6C6) diluted to 3 µg/ml was then added to each well and incubated for another hour at room temperature. The antibody diluent consisted of Trizma base, 1.21 g/L; NaCl, 29.22 g/L; NaN3, 1.5 g/L, Triton X 405, 0.5 ml/L; PEG (Mw 3350), 40 g/L; Mg Cl2·6H2O, 0.095 g/L; ZnCl2, 0.014 g/L; fetal bovine serum 100 ml/L; and BSA 2.5 g/L, pH 7.4.
After 1 hour incubation at room temperature with the reporter antibody (10D5 or 6C6) the supernatant was aspirated and the wells were washed three times with 300 µl/well of TBS. Streptavidin alkaline phosphatase (100 µl/well, diluted 1:2000 in the conjugate diluent buffer) was added and incubated for another hour at room temperature. […] Fluorescent substrate (4-methyl-umbellipheryl phosphate in 2-amino-2-methyl […] buffer; pH 9.5; (100 µl/well) was added) and fluorescence read and expressed as relative fluorescent units ([…]) after 15 minutes using a Cytofluor 2300 from Millipore, with 360/40 excitation filter and 460/40 emission filter. […]

[2] = target: Monoclonal antibodies to the junction region of βAP; experiment: Saturation analysis (RIA): displacement of 125I-labeled βAP1-28 from junction-region hybridoma clones by unlabeled peptide; format: binding, mice
Method: The RIA method used to screen serum bleeds and fusion hybridoma supernatants was based upon a method developed by Wang et al. (1977) J. Immunol. Methods 18:157-164. Briefly, the supernatant (or serum) was incubated overnight at room temperature on a rotator with ^125I-labeled βAP1-28 and Sepharose® 4B beads to which sheep anti-mouse IgG had been coupled via cyanogen bromide. The beads from each well were harvested onto glass fiber filter discs with a cell harvester and washed several times with PBS. The filter discs were then transferred to gamma tubes and the bound radioactivity was counted in a gamma counter.
Based on results of the above assays, several clones were expanded into 24 well plates. These clones were further characterized by saturation analysis. Supernatants at the 50% titer point (as determined by the RIA method described above) were added to wells containing Sepharose®-sheep anti-mouse IgG beads, a constant amount of ^125I-labeled βAP1-28, and varying amounts of unlabeled βAP13-28 or βAP17-28. The concentration of cold peptide for 50% inhibition was determined for each antibody. […] The 50% inhibition point for βAP13-28 ranged from 10-80 ng/well. The clones were also characterized based on reactivity in Western blots. Based on titer point, sensitivity (as determined by the 50% inhibition point), and reactivity on Western blot, several clones were produced in ascites.

Substance	%Cross-Reactivity [1] [%]	other results
βAP Fragment 13-20 (HHQKLVFF; Amyloid-beta protein 42; UniProt P05067 684-691, looked up, fragment)	0.2	
βAP Fragment 15-20 (QKLVFF; Amyloid-beta protein 42; UniProt P05067 686-691, looked up, fragment)	0	
βAP Fragment 11-18 (EVHHQKLV; Amyloid-beta protein 42; UniProt P05067 682-689, looked up, fragment)	0	
βAP13-28 (HHQKLVFFAEDVGSNK; Amyloid-beta protein 42; UniProt P05067 684-699, looked up, fragment)		concentration of cold peptide for 50% inhibition ([2]; range over the clones, supernatants at the 50% titer point, 125I-labeled βAP1-28): 10-80 ng/well
βAP17-28 (LVFFAEDVGSNK; Amyloid-beta protein 42; UniProt P05067 688-699, looked up, fragment)		inhibition of 125I-labeled βAP1-28 binding ([2]; at 100 ng/well, any clones): no inhibition
βAP Fragment 13-18 (HHQKLV; Amyloid-beta protein 42; UniProt P05067 684-689, looked up, fragment)	0	
